This note sets out measurements from patent publication US20050266060A1, “Transdermal delivery system for treatment of cognitive disorders” (priority 2004, published 2005).

Data set [1] can be described thus: in vitro penetration across human epidermis in glass diffusion cells. Format: in vitro ADME. How it is done:
Preparation of skin membranes: Human skin is obtained post mortem and may be stored at −20° C. until needed. When required the tissue is allowed to thaw at room temperature and the subcutaneous fat removed. Epidermal sheets are separated from full-thickness skin by immersing in water at 60° C. for 45 seconds and gently peeling away the epidermis. Alternatively, skin may be obtained from another source, such as a mouse or rat.
Absorption studies are performed in vitro using glass diffusion cells, having epidermal membranes mounted in Franz type diffusion cells. For example, Franz type diffusion cells having a cross-sectional area of 2.54 cm^2. The cells may be housed in a water bath to maintain a desired temperature. The upper surface of the membrane is exposed to donor solution and the under surface of the membrane is bathed by continuously stirred receptor fluid. Receptor fluid may be a phosphate buffered saline solution, or any physiological solution.
Membrane integrity may be assayed using methods well known in the art prior to conducting a diffusion assay. […]
Results from absorption experiments are typically plotted as cumulative amount absorbed against time. The steady state penetration rate, or flux, J (μg/cm^2/hr), is typically calculated by linear regression analysis from the linear regions of an absorption plot. […]

Data set [2] in a line: chemical stability of phenserine in vehicles. Type of data set: physicochemical. On the procedure: The time-course profiles for phenserine penetration across human epidermis from the formulations of the invention are conducted. […] Therefore, breakdown and degradation products, for example, by hydrolysis and subsequent oxidation, are assayed in each vehicle. The vehicles of the invention, including propionic acid and/or oleic acid, are assayed for the chemical stability of a phenserine compound.

Data set [3] in a line: solubility of phenserine or its salt. Type of data set: physicochemical. As to conditions: propionic acid as co-solvent with isopropyl myristate and/or oleic acid. On the procedure: To assay solubility, between 10-20 mg of phenserine is weighed into a 1 ml volumetric flask. An initial 1 ml volume of a chosen vehicle is added to the flask and the mixture agitated, for example, ultrasonically for at least 30 minutes.

A short description of data set [4]: brain and plasma drug levels in rats after phenserine i.v. dosing.
Description: (§1) To determine the time-dependent effects of phenserine on cholinergic function, AChE activity, brain and plasma drug levels and brain extracellular ACh concentrations were measured in rats before and after phenserine administration.
The subject of another data set is brain extracellular ACh. As to the kind of experiment: striatal in vivo microdialysis in conscious, freely-moving rats.
Data set [5] relates to beta amyloid precursor protein. As to the kind of experiment: production of beta amyloid precursor protein.
The nature of data set [6]: clinical studies of oral phenserine compound. Type of data set: in vivo, human. As to conditions: oral dose of about 10 and/or 15 mg bid. How it is done:
Clinical studies indicate that an oral dose of a phenserine compound of about 10 and/or 15 mg bid may produce a beneficial treatment for cognitive disorders, such as AD. […] Therefore, the dosage of a phenserine compound may be reduced when administered transdermally.

A further data set concerns the target T1, AChE (Rattus norvegicus, UniProt P37136).
T1 sequence (P37136 32-614): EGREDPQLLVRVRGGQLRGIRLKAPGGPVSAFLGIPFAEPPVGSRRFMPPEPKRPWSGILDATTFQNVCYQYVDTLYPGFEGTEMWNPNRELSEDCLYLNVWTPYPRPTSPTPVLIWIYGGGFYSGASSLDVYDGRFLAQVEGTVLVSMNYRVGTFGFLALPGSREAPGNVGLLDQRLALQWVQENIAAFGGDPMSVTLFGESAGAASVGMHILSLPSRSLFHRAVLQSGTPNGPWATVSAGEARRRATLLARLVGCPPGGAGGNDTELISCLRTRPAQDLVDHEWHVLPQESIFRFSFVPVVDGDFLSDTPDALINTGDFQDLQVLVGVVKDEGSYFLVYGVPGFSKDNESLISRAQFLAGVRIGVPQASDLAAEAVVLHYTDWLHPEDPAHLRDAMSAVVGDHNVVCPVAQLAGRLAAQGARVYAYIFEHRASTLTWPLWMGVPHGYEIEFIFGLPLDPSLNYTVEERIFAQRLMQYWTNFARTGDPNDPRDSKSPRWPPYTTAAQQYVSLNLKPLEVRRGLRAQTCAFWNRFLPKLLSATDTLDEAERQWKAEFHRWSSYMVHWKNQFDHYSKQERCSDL
Description: time-dependent AChE inhibition in rats after phenserine administration.

For another data set, the system named is cholinesterase. As to the kind of experiment: inhibition of cholinesterase activity. Type of data set: biochemical. The text has this:
The phenserine compounds of the invention may be synthesized using processes known in the art. For example, U.S. Pat. Nos. 6,495,700, 5,409,948, 5,171,750, 5,378,723, and 5,998,460, and WO 03/082270 A1, all of which are hereby incorporated by reference in their entirety, describe the preparation of the phenserine compounds of the invention and enzyme inhibition assays that may be used to test compounds of the invention.

Data set [7] is described as follows: skin irritancy and skin penetration of mixture with oleic acid. The note with it: 50:50 mixture with oleic acid. The text has this:
Ethyl oleate gives a better performance still and is optimal in combination with propionic acid.

A value given as a limit tells only on which side of the number the result lay.

Description for AChE: as §1
Description for brain extracellular ACh: as §1

With `CN1CC[C@@]2(C)c3cc(OC(=O)Nc4ccccc4)ccc3N(C)C12` (single isomer, unassigned) [phenserine], the transdermal flux rate entry in data set [1] (25% in propionic acid/isopropyl myristate) and in data set [1] (25% in propionic acid/oleic acid) was “sufficiently high transdermal flux rates” each time. Further, the “effect of co-solvent on stability” value in data set [2] (propionic acid as co-solvent with isopropyl myristate and/or oleic acid) is listed as “increase”. For the same molecule, in data set [2] (vehicles of the invention, such as propionic acid and/or oleic acid), the “chemical stability in vehicle” value is given as “chemically stable”. The “effect of co-solvent on solubility” value in data set [3] was “increase”. The same molecule yielded a Kp in data set [4] (rat, brain / plasma, iv) of 10. Also, the half-life was 8.5 min in [4] (rat, brain, iv) and 12.6 min in data set [4] (rat, plasma, iv). Further, the “time to peak drug level” value in data set [4] (rats, i.v. dosing) is given as at most 5 min. In addition, in the data set on brain extracellular ACh, the “rise in brain ACh levels” value was above 3 fold. Moreover, in data set [5], the “production of beta amyloid precursor protein” value was “reduction in β-APP production”. The “signs of cholinergic over stimulation” value in data set [6] was “does not cause overt signs of cholinergic over stimulation”. At AChE (rat, plasma, po), this molecule returned a bioavailability of 100%. Besides, at AChE (rats, i.v. dosing), the “half-life of AChE inhibition” value was above 495 min. Also, the “inhibition of AChE” value against AChE (rats, i.v. dosing) was above 70%. The “inhibition of cholinesterase activity” value in the data set with cholinesterase is “long-acting inhibitor of cholinesterase”.
For `CN1CC[C@]2(C)c3cc(OC(=O)Nc4ccccc4)ccc3N(C)C12` (stereo partly drawn) [POSIPHEN, (3aR)-1,3a,8-trimethyl-1,2,3,3a,8,8a-hexahydropyrrolo[2,3-b]indol-5-yl phenylcarbamate], the “production of beta amyloid precursor protein” value in data set [5] was “reduces the production of beta amyloid precursor protein”. In the data set with cholinesterase, the “inhibition of cholinesterase activity” value is recorded as “does not inhibit cholinesterase activity”.
As for `CNC(=O)Oc1ccc2c(c1)[C@]1(C)CCN(C)[C@@H]1N2C` [physostigmine], in [7], the “penetration through the skin” value was “very efficient” and the skin irritancy entry was “non-irritant”.

A word on the Kp: it is the ratio of the level in a tissue or fluid to that in plasma or blood. In general, half-life refers to how long it takes for the measured level to halve. The bioavailability is dose-corrected exposure relative to a reference, in per cent. Low readings indicate poor availability, high ones good availability.
